Experimental data reported in PMC11271627, “Molecular dynamics-guided optimization of BGM0504 enhances dual-target agonism for combating diabetes and obesity” (Scientific Reports, 2024).
Marks after values point to notes of the source that are not given here.

Experiments:
Human GLP-1R = target: T1, Human GLP-1R (Homo sapiens, UniProt P43220); assay: cAMP accumulation assay, GLP-1R; type: cell-based
T1 construct: expressed in transfected cells; host or cells: HEK293 cells
Method: These cells were then resuspended in 5 mL of the assay buffer, and their concentration was determined using a Vi-Cell Counter. […] Samples were subsequently added to the assay plate along with ECHO555. […] A volume of 10 µL of the cell suspension was added to the assay plate, with a density of 1000 cells/well for GLP-1R testing and 2000 cells/well for GIPR testing. The assay plate was then incubated in a 23°C incubator for 30 minutes. A starting concentration of 800 nM was used to prepare the cAMP standard curve, followed by a 4-fold 10-point serial dilution. These serially diluted cAMP standards were added to the assay plate at a volume of 10 µL/well. Subsequently, 10 µL of the cAMP detection solution was added to the assay plate, and the plate was incubated at room temperature for 1 hour, shielded from direct light. […] For data analysis, each data point’s cAMP level (nM) was calculated using the established cAMP standard curve. The percentage activity for each data point was determined using the formula: % Activity = (cAMP level of testing sample - average cAMP level of low control) / ([…] cAMP level of high control - average cAMP level of […] control) × 100%. Additionally, the ‘log(agonist) vs. response – variable slope’ model in GraphPad Prism 5.0 was used to fit the dose-response curve of each sample and calculate the EC50 value.

[1] = system: STZ + HFD-induced C57BL/6 mice; assay: STZ + HFD-induced diabetes and NASH model in C57BL/6 mice; type: in vivo; details: Mean±SEM; for Ballooning Degeneration score / Inflammatory Cell Infiltration score / NAS (NAFLD Activity Score) / Steatosis score: liver H&E staining; for Fibrosis percentage: liver Sirius red staining, fibrosis area of total section area; for ALT / AST: serum; for ALT: HFD 8 weeks
Method: Both the control and model groups received a subcutaneous injection of the drug vehicle, while only the model group was fed a high-fat diet (HFD). […] This experiment involved selecting 30 SPF grade C57BL/6 pregnant female mice provided by Shanghai Jihui Experimental Animal Breeding Co., Ltd. Newborn male mice underwent subcutaneous injection of STZ (streptozotocin) (100 μg each) within 48 hours after birth and were nursed by their mothers for 4 weeks. During this period, we measured the fasting blood glucose of the mice and selected 65 diabetic male mice with fasting blood glucose values greater than or equal to 12 mmol/L as experimental animals. These mice were fed a HFD for 8 weeks to establish the STZ + HFD-induced diabetes and Nonalcoholic Steatohepatitis (NASH) model in male C57BL/6 mice. Fasting blood sugar was detected after 1 week of HFD feeding in these NASH model mice. Based on fasting blood sugar and body weight, they were randomly divided into the model group, the Tirzepatide-0.15 mg/kg group, the BGM0504-0.05 mg/kg group, the BGM0504-0.15 mg/kg group, and the BGM0504-0.5 mg/kg group. The treatment groups received administration once every 3 days. Additionally, their mothers nursed 10 newborn male mice without STZ injection for 4 weeks and then fed a regular maintenance diet as a control group. After HFD feeding, body weights were measured, and the animals’ food intake was recorded every 3 days until the end of the experiment. Three days after the last dose, animal weights were measured. Following a 6-hour fasting period, all experimental animals were anesthetized with an intraperitoneal injection of sodium pentobarbital. Non-anticoagulated whole blood was collected through the orbital venous plexus, left at room temperature for 30 minutes, and centrifuged at 5000 rpm for 5 minutes. The serum was separated and stored at -80°C for biochemical testing. After thawing the frozen serum samples, serum ALT, AST, TG, TC, HDL-c and LDL-c levels […] were measured using a Hitachi 7060 automatic biochemical detector. Insulin content was determined using an enzyme-linked immunoassay kit. After the dissection procedure, the liver was perfused with pre-cooled saline and then obtained and photographed. Its weight was also measured. Subsequently, the liver was immersed in 10% formalin for fixation and divided into two parts. One part underwent pathological hematoxylin and eosin (H&E) staining. The H&E staining was conducted on paraffin sections of all animal livers following the KCI pathology staining standard operating procedure (SOP). These stained sections were panoramically scanned using a NanoZoomer Digital Pathology scanner. Different fields of view were selected for observation at various magnifications, and the liver lobes in the sections were scored. The other part was subjected to pathological Sirius red (SR) staining. Similarly, SR staining was performed on paraffin sections of the liver following the KCI pathology staining SOP. The stained sections were also panoramically scanned using the NanoZoomer Digital Pathology scanner. Subsequently, VIS7.0 software was utilized to analyze the liver fibrosis area in the panoramically examined SR-stained sections, and the percentage of the liver fibrosis area with the total section area was calculated.

[2] = 0.05 mg/kg once every 3 days, n=11
[3] = 0.15 mg/kg once every 3 days, n=13
[4] = 0.5 mg/kg once every 3 days, n=13

T1 sequence (P43220 24-463): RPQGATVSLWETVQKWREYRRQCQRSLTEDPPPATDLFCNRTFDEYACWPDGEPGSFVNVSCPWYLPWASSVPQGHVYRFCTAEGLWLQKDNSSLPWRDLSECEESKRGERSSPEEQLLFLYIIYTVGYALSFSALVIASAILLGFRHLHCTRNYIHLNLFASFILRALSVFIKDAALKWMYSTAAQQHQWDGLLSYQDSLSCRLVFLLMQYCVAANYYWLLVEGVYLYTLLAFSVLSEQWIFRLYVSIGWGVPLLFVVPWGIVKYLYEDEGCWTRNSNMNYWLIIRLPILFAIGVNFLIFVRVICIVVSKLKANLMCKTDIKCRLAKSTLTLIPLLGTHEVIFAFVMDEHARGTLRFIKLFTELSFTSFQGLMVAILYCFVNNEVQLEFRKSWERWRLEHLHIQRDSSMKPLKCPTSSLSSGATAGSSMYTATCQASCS

CC[C@H](C)[C@H](NC(=O)[C@H](CC(C)C)NC(=O)[C@H](Cc1c[nH]c2ccccc12)NC(=O)[C@H](CCC(N)=O)NC(=O)[C@@H](NC(=O)[C@H](Cc1ccccc1)NC(=O)[C@H](C)NC(=O)[C@H](CCCCN)NC(=O)[C@H](CCC(N)=O)NC(=O)[C@H](C)NC(=O)[C@@H](NC(=O)[C@H](CCCCN)NC(=O)[C@H](CC(=O)O)NC(=O)[C@H](CC(C)C)NC(=O)C(C)(C)NC(=O)[C@@H](NC(=O)[C@H](CO)NC(=O)[C@H](Cc1ccc(O)cc1)NC(=O)[C@H](CC(=O)O)NC(=O)[C@H](CO)NC(=O)[C@@H](NC(=O)[C@H](Cc1ccccc1)NC(=O)[C@@H](NC(=O)CNC(=O)[C@H](CCC(=O)O)NC(=O)C(C)(C)NC(=O)[C@@H](N)Cc1ccc(O)cc1)[C@@H](C)O)[C@@H](C)O)[C@@H](C)CC)[C@@H](C)CC)C(C)C)C(=O)N[C@@H](C)C(=O)NCC(=O)NCC(=O)N1CCC[C@H]1C(=O)N[C@@H](CO)C(=O)N[C@@H](CO)C(=O)NCC(=O)N[C@@H](C)C(=O)N1CCC[C@H]1C(=O)N1CCC[C@H]1C(=O)N1CCC[C@H]1C(=O)N[C@@H](CO)C(=O)N[C@@H](CCCCNC(=O)COCCOCCOCCNC(=O)COCCOCCOCCNC(=O)CC[C@H](NC(=O)CCCCCCCCCCCCCCCCCCC(=O)O)C(=O)O)C(N)=O [BGM0504]
EC50 (Human GLP-1R; HEK293 cells with high expression of GLP-1 receptor, 1000 cells/well, 30 min 23°C, geometric mean ± SEM, n = 3): 0.031 nM
Emax (Human GLP-1R; HEK293 cells, relative to 10 nM GLP-1(7–37) high control, arithmetic mean ± SEM): 92.7 ± 7.6%
HDL-c [1, 2]: 2.30 ± 0.09 mmol/L
LDL-c [1, 2]: 0.56±0.03^b mmol/L
TC [1, 2]: 3.81±0.15^c mmol/L
TG [1, 2]: 1.09±0.20^b mmol/L
HDL-c [1, 3]: 1.83 ± 0.22 mmol/L
LDL-c [1, 3]: 0.65±0.10^c mmol/L
TC [1, 3]: 3.25±0.12^c mmol/L
TG [1, 3]: 0.84±0.12^b mmol/L
HDL-c [1, 4]: 2.13 ± 0.13 mmol/L
LDL-c [1, 4]: 0.62±0.03^c mmol/L
TC [1, 4]: 3.53±0.09^c mmol/L
TG [1, 4]: 0.88±0.14^b mmol/L
Ballooning Degeneration score ([1]; 0.05 mg/kg, n=11): 0.00±0.00
Inflammatory Cell Infiltration score ([1]; 0.05 mg/kg, n=11): 0.91±0.08^a
NAS (NAFLD Activity Score) ([1]; 0.05 mg/kg, n=11): 1.42±0.14^a
Steatosis score ([1]; 0.05 mg/kg, n=11): 0.52±0.12^a
Ballooning Degeneration score ([1]; 0.15 mg/kg, n=13): 0.00±0.00^a
Inflammatory Cell Infiltration score ([1]; 0.15 mg/kg, n=13): 0.90±0.06^a
NAS (NAFLD Activity Score) ([1]; 0.15 mg/kg, n=13): 1.36±0.15^a
Steatosis score ([1]; 0.15 mg/kg, n=13): 0.46±0.13^a
Ballooning Degeneration score ([1]; 0.5 mg/kg, n=13): 0.00±0.00
Inflammatory Cell Infiltration score ([1]; 0.5 mg/kg, n=13): 1.03±0.05^a
NAS (NAFLD Activity Score) ([1]; 0.5 mg/kg, n=13): 1.36±0.10^a
Steatosis score ([1]; 0.5 mg/kg, n=13): 0.33±0.08^a
Fibrosis percentage ([1]; 0.05 mg/kg, n=11): 1.11±0.05^a %
Fibrosis percentage ([1]; 0.15 mg/kg, n=13): 1.10±0.04^b %
Fibrosis percentage ([1]; 0.5 mg/kg, n=13): 1.07±0.05^c %
ALT [1, 2]: 73.97±9.20 U/L
AST [1, 2]: 155.44±10.85 U/L
ALT [1, 3]: 67.58±7.73^a U/L
AST [1, 3]: 152.48±6.56^a U/L
ALT [1, 4]: 58.46±5.38^b U/L
AST [1, 4]: 150.54±6.26^a U/L
